Target: T1, integrin α4β7 (RPMI-8866 cells) binding with rat MAdCAM-1/human IgG1 chimera protein (Homo sapiens, UniProt P13612+P26010)
T1 construct: lymphoma cell strain RPMI-8866 of human B cells, known to express integrin α4β7; endogenous in cells; host or cells: RPMI-8866 (human B-cell lymphoma line)
T1 sequence (P13612 34-1032): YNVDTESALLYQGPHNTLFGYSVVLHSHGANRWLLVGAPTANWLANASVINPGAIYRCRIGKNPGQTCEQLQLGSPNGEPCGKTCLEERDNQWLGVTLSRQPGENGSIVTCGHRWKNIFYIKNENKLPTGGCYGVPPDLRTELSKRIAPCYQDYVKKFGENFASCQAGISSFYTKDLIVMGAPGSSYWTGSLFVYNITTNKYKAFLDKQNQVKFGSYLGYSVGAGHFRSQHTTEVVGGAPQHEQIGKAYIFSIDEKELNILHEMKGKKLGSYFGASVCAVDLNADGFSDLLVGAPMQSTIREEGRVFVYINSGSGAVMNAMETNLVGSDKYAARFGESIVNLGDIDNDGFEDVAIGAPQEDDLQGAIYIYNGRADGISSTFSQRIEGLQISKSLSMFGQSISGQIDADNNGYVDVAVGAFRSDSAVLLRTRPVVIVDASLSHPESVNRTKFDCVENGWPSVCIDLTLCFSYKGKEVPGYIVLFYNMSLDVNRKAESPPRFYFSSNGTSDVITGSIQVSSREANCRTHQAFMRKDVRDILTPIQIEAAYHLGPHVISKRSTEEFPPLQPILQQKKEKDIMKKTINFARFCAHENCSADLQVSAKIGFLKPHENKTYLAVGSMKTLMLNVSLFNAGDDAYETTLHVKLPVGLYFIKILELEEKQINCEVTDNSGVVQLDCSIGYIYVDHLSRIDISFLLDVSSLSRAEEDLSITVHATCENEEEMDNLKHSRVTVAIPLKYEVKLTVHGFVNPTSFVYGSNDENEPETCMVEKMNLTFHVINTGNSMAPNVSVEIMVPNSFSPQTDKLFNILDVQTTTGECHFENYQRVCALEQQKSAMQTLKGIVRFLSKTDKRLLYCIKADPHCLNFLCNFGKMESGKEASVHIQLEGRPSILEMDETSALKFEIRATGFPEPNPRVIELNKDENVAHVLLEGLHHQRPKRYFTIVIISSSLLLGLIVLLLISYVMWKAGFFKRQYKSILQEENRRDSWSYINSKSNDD
T1 sequence (P26010 20-798): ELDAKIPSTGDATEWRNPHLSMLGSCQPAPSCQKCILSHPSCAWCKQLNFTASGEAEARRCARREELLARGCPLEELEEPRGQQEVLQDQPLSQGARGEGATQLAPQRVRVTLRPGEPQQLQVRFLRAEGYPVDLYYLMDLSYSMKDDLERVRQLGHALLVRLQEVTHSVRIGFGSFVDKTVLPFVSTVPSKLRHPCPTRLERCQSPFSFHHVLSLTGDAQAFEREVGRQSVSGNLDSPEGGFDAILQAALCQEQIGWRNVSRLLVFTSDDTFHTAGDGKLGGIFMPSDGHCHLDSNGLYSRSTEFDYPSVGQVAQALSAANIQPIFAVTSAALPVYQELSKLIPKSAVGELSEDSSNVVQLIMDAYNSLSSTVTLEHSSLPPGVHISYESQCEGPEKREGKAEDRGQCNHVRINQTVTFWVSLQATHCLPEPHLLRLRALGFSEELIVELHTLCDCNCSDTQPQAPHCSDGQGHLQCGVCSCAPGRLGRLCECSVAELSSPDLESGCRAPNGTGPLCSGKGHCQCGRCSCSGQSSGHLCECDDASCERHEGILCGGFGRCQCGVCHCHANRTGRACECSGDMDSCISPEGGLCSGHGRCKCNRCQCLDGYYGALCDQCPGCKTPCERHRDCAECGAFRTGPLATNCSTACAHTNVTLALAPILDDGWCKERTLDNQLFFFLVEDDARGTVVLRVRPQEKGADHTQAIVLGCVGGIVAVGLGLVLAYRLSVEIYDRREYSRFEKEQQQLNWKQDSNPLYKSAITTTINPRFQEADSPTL
Experiment: Rat MAdCAM-1 antagonistic activity (rat MAdCAM-1/α4β7 binding assay), RPMI-8866 cell adhesion
Format: cell-based
Conditions: 4 mM MnCl2, read-out: MadCAM/α 4 β 7 antagonistic activity to integrin (IC50)
Experimental: (Test Example) Rat MAdCAM-1 Antagonistic Activity (rat MAdCAM-1/α4β7 Binding Assay):
The capacity of a test substance antagonistic to the binding of lymphoma cell strain RPMI-8866 of human B cells, known to express integrin α4β7, with rat MAdCAM-1/human IgG1 chimera protein was determined.
100 μl/well of human IgG1 antibody (SIGMA #I-6260) diluted with buffer A to 1/1,000 concentration was added to a micro titer plate having 96 wells. After the incubation at 4° C. overnight, the plate was washed with PBS once. 100 μl/well of rat MAdCAM-1/human IgG1 chimera protein solution diluted with a buffer (buffer C)obtained by diluting Block Ace® (Dainippon Pharmaceutical Co., Ltd.) with PBS to 1/10 concentration was added in an amount of 100 μl/well. After the incubation at 37° C. for 2 hours, unbound MAdCAM-1/IgG was removed by washing once with PBS. After completion of the washing, 150 μl/well of buffer B was added and the incubation was continued at room temperature for 1 hour. Buffer B was removed and then the plate was washed with PBS once.
RPMI-8866 cells were incubated in DMEM containing 10 μg/ml of Calcein-AM at 37° C. for 30 minutes to label them with fluorescence. The cells were again suspended in a binding buffer containing 4 mM of MnCl2.
50 μl of a test substance of various concentrations obtained by the dilution with the binding buffer was added to the plate. Immediately thereafter, 50 μl (final volume: 100 μl/well) of the fluorescent RPMI-8866 cells (4×10^6 cells/ml ) were added thereto, and they were incubated at room temperature for 30 minutes. After the shaking on a plate shaker (IKA MTS-4) at 800 rpm for 30 seconds, the solution was immediately removed to remove the unbound cells. The fluorescence quantity of the bound cells remaining in the wells was determined with a fluorescent plate reader (Wallac 1420 ARVO multi-label counter). The fluorescent strength thus obtained is proportional to the number of RPMI-8866 cells bound to MAdCAM-1 and remaining on the plate. The binding rate of each test material in various concentrations was determined while the fluorescent strength of the test material-free well was determined to be 100%. The concentration IC50 for the 50% binding inhibition was calculated.

| Compound | IC50 [nM] |
| --- | --- |
| O=C(O)[C@H](Cc1ccc(OCc2c(Cl)cccc2Cl)cc1)NC(=O)[C@H]1CC[C@H](C(=O)NCc2ccccc2)CC1 [Example 6] | 1000 to 5000 |
| O=C(O)[C@H](Cc1ccc(OCc2c(Cl)cccc2Cl)cc1)NC(=O)[C@H]1CC[C@H](C(=O)NNc2ccc(OC(F)(F)F)cc2)CC1 [Example 35] | 1000 to 5000 |
| O=C(Nc1ccc(C[C@H](NC(=O)[C@H]2CC[C@H](C(=O)O)CC2)C(=O)O)cc1)c1snnc1-c1ccccc1 [Example 45, N-(Trans-4-carboxycyclohexane-1-carbonyl)-4-{[(4-phenyl-1,2,3-thiadiazole-5-yl)carbonyl]amino}-L-phenylalanine] | 1000 to 5000 |
| COc1ccc(NNC(=O)[C@H]2CC[C@H](C(=O)N[C@@H](Cc3ccc(NC(=O)c4snnc4-c4ccccc4)cc3)C(=O)O)CC2)cc1 [Example 46, N-[Trans-4-(4-methoxyphenylhydrazinocarbonyl)cyclohexane-1-carbonyl]-4-{[(4-phenyl-1,2,3-thiadiazole-5-yl)carbonyl]amino}-L-phenyl-alanine] | 1000 to 5000 |
| COc1cccc(OC)c1-c1ccc(C[C@H](NC(=O)[C@H]2CC[C@H](C(=O)O)CC2)C(=O)O)cc1 [Example 50, N-(Trans-4-carboxycyclohexane-1-carbonyl)-4-(2,6-dimethoxyphenyl)-L-phenylalanine] | 1000 to 5000 |
| COc1ccc(NNC(=O)[C@H]2CC[C@H](C(=O)N[C@@H](Cc3ccc(-c4c(OC)cccc4OC)cc3)C(=O)O)CC2)cc1 [Example 51, N-[Trans-4-(4-methoxyphenylhydrazinocarbonyl)cyclohexane-1-carbonyl]-4-(2,6-dimethoxyphenyl)-L-phenylalanine] | 200 to 1000 |

Next, values leading:

| IC50 [nM] | Compound |
| --- | --- |
| ≤ 200 | O=C(O)[C@H](Cc1ccc(OCc2c(Cl)cccc2Cl)cc1)NC(=O)[C@H]1CC[C@H](C(=O)O)CC1 [Example 2, N-(Trans-4-carboxycyclohexane-1-carbonyl)-O-(2,6-dichlorobenzyl)-L-tyrosine] |
| 200 to 1000 | O=C(O)[C@H](Cc1ccc(OCc2c(Cl)cccc2Cl)cc1)NC(=O)[C@H]1CC[C@H](C(=O)NNc2ccccc2)CC1 [Example 3, N-(Trans-4-phenylhydrazinocarbonylcyclohexane-1-carbonyl)-O-(2,6-dichlorobenzyl)-L-tyrosine] |
| 200 to 1000 | O=C(O)[C@H](Cc1ccc(OCc2c(Cl)cccc2Cl)cc1)NC(=O)[C@H]1CC[C@H](C(=O)NNc2ccc(Br)cc2)CC1 [Example 4, N-[Trans-4-(4-bromophenylhydrazinocarbonyl)cyclohexane-1-carbonyl]-O-(2,6-dichlorobenzyl)-L-tyrosine] |
| 200 to 1000 | COc1ccc(NNC(=O)[C@H]2CC[C@H](C(=O)N[C@@H](Cc3ccc(OCc4c(Cl)cccc4Cl)cc3)C(=O)O)CC2)cc1 [Example 14] |
| 200 to 1000 | Cc1ccc(NNC(=O)[C@H]2CC[C@H](C(=O)N[C@@H](Cc3ccc(OCc4c(Cl)cccc4Cl)cc3)C(=O)O)CC2)cc1 [Example 34] |
| 200 to 1000 | COc1cccc(NNC(=O)[C@H]2CC[C@H](C(=O)N[C@@H](Cc3ccc(OCc4c(Cl)cccc4Cl)cc3)C(=O)O)CC2)c1 [Example 44] |

From patent publication US6610710B2, “Phenylalanine derivatives” (Ajinomoto Co., Inc., priority 1999, dated 2003)
